Assay results taken from the NIST ThermoML archive (doi:10.1021/je050202g).
Numbers after ± are expanded uncertainties.

What was measured:
[1] = wn = mass fraction of the nth substance listed; details: Wilhelmy Plate method
[2] = cn = amount concentration of the nth substance listed, in mol/dm3; details: 101.3 kPa, Liquid; for viscosity: Capillary tube (Ostwald / Ubbelohde) method
[3] = Wilhelmy Plate method

Structure (SMILES): C1CNCCN1 [piperazine] + O
- surface tension liquid-gas ([1]; 293.15 K, w1 = 0.043): 71.7 ± 2.1 mN/m
- surface tension liquid-gas ([1]; 293.15 K, w1 = 0.086): 70.1 ± 2 mN/m
- surface tension liquid-gas ([1]; 293.15 K, w1 = 0.129): 69.3 ± 1.9 mN/m
- surface tension liquid-gas ([1]; 313.15 K, w1 = 0.043): 68.5 ± 2 mN/m
- surface tension liquid-gas ([1]; 313.15 K, w1 = 0.086): 67.8 ± 1.9 mN/m
- surface tension liquid-gas ([1]; 313.15 K, w1 = 0.129): 67.6 ± 1.9 mN/m
- viscosity ([2]; 293.15 K, c1 = 0.623): 1.26 ± 0.04 mPa·s
- viscosity ([2]; 293.15 K, c1 = 1.006): 1.52 ± 0.05 mPa·s
- viscosity ([2]; 293.15 K, c1 = 1.49): 1.87 ± 0.06 mPa·s
- mass density ([2]; 293.15 K, c1 = 0.623): 1000.46 ± 2.5 kg/m3
- mass density ([2]; 293.15 K, c1 = 1.006): 1002.49 ± 2.5 kg/m3
- mass density ([2]; 293.15 K, c1 = 1.49): 1005.4 ± 2.4 kg/m3
- viscosity ([2]; 298.15 K, c1 = 0.623): 1.11 ± 0.04 mPa·s
- viscosity ([2]; 298.15 K, c1 = 1.006): 1.31 ± 0.04 mPa·s
- viscosity ([2]; 298.15 K, c1 = 1.49): 1.62 ± 0.05 mPa·s
- viscosity ([2]; 298.15 K, c1 = 1.686): 1.8 ± 0.06 mPa·s
- mass density ([2]; 298.15 K, c1 = 0.623): 999.37 ± 2.5 kg/m3
- mass density ([2]; 298.15 K, c1 = 1.006): 1001.3 ± 2.5 kg/m3
- mass density ([2]; 298.15 K, c1 = 1.49): 1004.11 ± 2.4 kg/m3
- mass density ([2]; 298.15 K, c1 = 1.686): 1005.39 ± 2.4 kg/m3
- viscosity ([2]; 303.15 K, c1 = 0.623): 0.98 ± 0.03 mPa·s
- viscosity ([2]; 303.15 K, c1 = 1.006): 1.15 ± 0.04 mPa·s
- viscosity ([2]; 303.15 K, c1 = 1.49): 1.4 ± 0.04 mPa·s
- viscosity ([2]; 303.15 K, c1 = 1.686): 1.56 ± 0.05 mPa·s
- mass density ([2]; 303.15 K, c1 = 0.623): 997.94 ± 2.5 kg/m3
- mass density ([2]; 303.15 K, c1 = 1.006): 999.79 ± 2.5 kg/m3
- mass density ([2]; 303.15 K, c1 = 1.49): 1002.47 ± 2.4 kg/m3
- mass density ([2]; 303.15 K, c1 = 1.686): 1003.66 ± 2.4 kg/m3
- viscosity ([2]; 313.15 K, c1 = 0.623): 0.79 ± 0.03 mPa·s
- viscosity ([2]; 313.15 K, c1 = 1.006): 0.92 ± 0.03 mPa·s
- viscosity ([2]; 313.15 K, c1 = 1.49): 1.09 ± 0.03 mPa·s
- viscosity ([2]; 313.15 K, c1 = 1.686): 1.2 ± 0.04 mPa·s
- mass density ([2]; 313.15 K, c1 = 0.623): 994.25 ± 2.5 kg/m3
- mass density ([2]; 313.15 K, c1 = 1.006): 996.03 ± 2.5 kg/m3
- mass density ([2]; 313.15 K, c1 = 1.49): 998.49 ± 2.4 kg/m3
- mass density ([2]; 313.15 K, c1 = 1.686): 999.49 ± 2.4 kg/m3
- viscosity ([2]; 323.15 K, c1 = 0.623): 0.65 ± 0.02 mPa·s
- viscosity ([2]; 323.15 K, c1 = 1.006): 0.75 ± 0.02 mPa·s
- viscosity ([2]; 323.15 K, c1 = 1.49): 0.88 ± 0.03 mPa·s
- viscosity ([2]; 323.15 K, c1 = 1.686): 0.96 ± 0.03 mPa·s
- mass density ([2]; 323.15 K, c1 = 0.623): 989.76 ± 2.5 kg/m3
- mass density ([2]; 323.15 K, c1 = 1.006): 991.53 ± 2.5 kg/m3
- mass density ([2]; 323.15 K, c1 = 1.49): 993.86 ± 2.4 kg/m3
- mass density ([2]; 323.15 K, c1 = 1.686): 994.74 ± 2.4 kg/m3

Structure (SMILES): O [water] + C1CNCCN1
- surface tension liquid-gas ([1]; 293.15 K, w2 = 0): 72.7 ± 2.2 mN/m
- surface tension liquid-gas ([1]; 313.15 K, w2 = 0): 69.8 ± 2.1 mN/m

Structure (SMILES): O [water]
- surface tension liquid-gas ([3]; 293.15 K): 72.7 ± 2.2 mN/m
- surface tension liquid-gas ([3]; 313.15 K): 69.8 ± 2.1 mN/m
